Assay results as given in patent US12180473B2, “Chimeric RNA-driven genomic rearrangement in mammalian cells” (priority 2018, dated 2024).

Assays:
TMPRSS2-ERG fusion [1] = tested on: TMPRSS2-ERG fusion
Method: LNCaP cells were cultured in this special medium for 24 hrs prior to plasmid transfection.
Transfection was performed using Turbofect transfection reagent (Thermo Scientific, #R0531) according to manufacturer's protocol. Briefly, 1 μg of a particular plasmid was first diluted in 100 μl of the serum-free DMEM followed by immediate mixing by pipetting. 4 μl of the transfection reagent was then added to the diluted DNA followed by mixing and incubation for 20 min. The DNA/transfection reagent mixture was then added drop wise to a well containing LNCaP cells in 1 ml medium.
For treating cultured cells, concentrated DHT stock was diluted as 10× working solutions (for example, for 0.9 μM final concentration, 10× is prepared as 9.0 μM) with the appropriate complete culture medium and used immediately. […] Six hrs post transfection, 111 μl of fresh 10× DHT working solutions was added to each well of 12-wells plate containing 1 ml medium and transfected cells.
Briefly, cells were suspended in 200 μl of PBS buffer and were then lysed with 400 μl of lysis buffer. The sample was then passed through the filter assembly resulting in the binding of the nucleic acids to the filter. The filter containing nucleic acids was then incubated with DNase I dissolved in DNase incubation buffer to degrade genomic and plasmid DNAs. The column was then rinsed with wash buffer and total RNA then eluted in a new tube for further analysis.
After the addition of dNTPs, the mixture was denatured at 65° C. for 5 minutes. This was followed by the addition of a master-mix containing 1× superscript buffer, 10 mM DTT, 5 mM Magnesium chloride, RNaseOUT and Superscript III reverse transcriptase. Reactions were carried out at 50° C. for 50 minutes and then terminated by incubation at 85° C. for 5 minutes. cDNA was then treated with RNase-H for 20 minutes at 37° C. to degrade RNA in DNA/RNA hybrid. 1 μl of cDNA was used as template for each subsequent PCR reaction.
The Denaturation, Annealing and Extension steps were performed 32 cycles for induced fusion RNA and 27 cycles for input RNA.

TMPRSS2 mRNA = details: LNCaP cells
ERG mRNA = experiment: RT-PCR of endogenous ERG mRNA in LNCaP cells
TMPRSS2-ERG fusion [2] = tested on: TMPRSS2-ERG fusion; remark: listed apart in the source
AZI1 RNA = details: LNCaP cells

## C[C@]12CCC(=O)C[C@@H]1CC[C@@H]1[C@@H]2CC[C@]2(C)[C@@H](O)CC[C@@H]12 [DHT, 5α-Androstan-17β-ol-3-one]
TMPRSS2-ERG fusion [1]
  DHT concentration at which fusion induction is detectable: ~0.6 µM
  DHT concentration at which fusion induction reaches its maximum: 1.5 µM
TMPRSS2 mRNA
  TMPRSS2 mRNA expression: upregulated
ERG mRNA; presence or absence of DHT or antisense-5
  endogenous ERG mRNA (three-rounds of nested RT-PCR): not detected
ERG mRNA; wide range of DHT, presence or absence of antisense-5
  endogenous ERG mRNA (RT-PCR): not detected
TMPRSS2-ERG fusion [2]
  TMPRSS2-ERG fusion transcript in PNT1A cells with DHT alone: no detectable fusion transcripts
AZI1 RNA
  endogenous AZI1 RNA expression: upregulated
